Data published in the NIST ThermoML archive (doi:10.1016/j.jct.2018.09.011).
“And” between values parts separate entries of the source, which are not always exact repeats. Identical values can stand only once.

Legend:
[1] = Molar enthalpy of transition or fusion; conditions: Crystal; DSC
[2] = for Normal melting temperature: DTA

Nc1ccccc1O [2-hydroxybenzenamine]
Conditions	Molar enthalpy of transition or fusion [kcal/mol]
[1]	7.79

[2], Crystal, Calculated from knudsen effusion weight loss
Conditions	vapor or sublimation pressure
321.12 K	0.000107 kPa and 0.000105 kPa and 0.000106 kPa
323.43 K	0.000141 kPa and 0.000138 kPa and 0.000139 kPa
325.14 K	0.00017 kPa and 0.000172 kPa
327.13 K	0.000212 kPa and 0.000214 kPa
329.3 K	0.000271 kPa and 0.000277 kPa and 0.000275 kPa
331.21 K	0.000343 kPa and 0.000335 kPa and 0.00034 kPa
333.13 K	0.000423 kPa and 0.000419 kPa
335.33 K	0.000534 kPa and 0.000541 kPa and 0.000538 kPa
337.2 K	0.000661 kPa and 0.000654 kPa and 0.000657 kPa
339.14 K	0.000824 kPa and 0.000835 kPa and 0.000826 kPa
341.33 K	0.001036 kPa and 0.001041 kPa and 0.001043 kPa
343.26 K	0.00129 kPa and 0.001263 kPa

Conditions	Normal melting temperature [°C]
[2], Crystal	174.38

Nc1ccc(O)cc1 [4-hydroxybenzenamine]
Conditions	Molar enthalpy of transition or fusion [kcal/mol]
[1]	7.51

[2], Crystal, Calculated from knudsen effusion weight loss
Conditions	vapor or sublimation pressure
337.15 K	0.000113 kPa and 0.000111 kPa
339.54 K	0.000144 kPa and 0.000147 kPa and 0.000145 kPa
341.2 K	0.000179 kPa and 0.000175 kPa and 0.000177 kPa
343.15 K	0.000223 kPa and 0.000221 kPa and 0.000219 kPa
345.47 K	0.000284 kPa and 0.00028 kPa and 0.000287 kPa
347.19 K	0.000348 kPa and 0.000342 kPa and 0.000344 kPa
349.15 K	0.000425 kPa and 0.000418 kPa and 0.000431 kPa
351.21 K	0.000527 kPa and 0.000533 kPa and 0.00053 kPa
353.2 K	0.000653 kPa and 0.000634 kPa and 0.000645 kPa
355.14 K	0.000787 kPa and 0.000786 kPa and 0.000796 kPa
357.46 K	0.001018 kPa and 0.001002 kPa and 0.001003 kPa
359.19 K	0.001205 kPa and 0.001211 kPa and 0.001198 kPa

Conditions	Normal melting temperature [°C]
[2], Crystal	186.89

Nc1cccc(O)c1 [3-hydroxybenzenamine]
Conditions	Molar enthalpy of transition or fusion [kcal/mol]
[1]	5.6

[2], Crystal, Calculated from knudsen effusion weight loss
Conditions	vapor or sublimation pressure
321.35 K	0.000101 kPa and 0.000102 kPa
323.2 K	0.000127 kPa and 0.000126 kPa
325.17 K	0.000163 kPa and 0.000161 kPa and 0.000162 kPa
327.4 K	0.000209 kPa and 0.000211 kPa and 0.00021 kPa
329.2 K	0.00026 kPa and 0.000259 kPa
331.17 K	0.000327 kPa and 0.00033 kPa and 0.000328 kPa
333.37 K	0.000422 kPa and 0.00042 kPa
335.2 K	0.000513 kPa and 0.0005 kPa and 0.00051 kPa
337.16 K	0.00063 kPa and 0.000633 kPa
339.36 K	0.000816 kPa and 0.000808 kPa and 0.000818 kPa
341.19 K	0.00099 kPa and 0.000998 kPa and 0.001 kPa
343.33 K	0.001245 kPa and 0.001241 kPa and 0.001238 kPa

[2]
Conditions	vapor or sublimation pressure [kPa]
354.45 K, Crystal	0.00426
356.39 K, Crystal	0.00515
358.34 K, Crystal	0.00622
360.33 K, Crystal	0.00754
362.32 K, Crystal	0.00913
364.28 K, Crystal	0.01083
366.24 K, Crystal	0.01321
368.21 K, Crystal	0.01572
369.99 K, Metastable liquid	0.02985
370.19 K, Crystal	0.01886
371.93 K, Metastable liquid	0.03445
372.14 K, Crystal	0.02314
373.94 K, Metastable liquid	0.03983
374.12 K, Crystal	0.02745
375.91 K, Metastable liquid	0.04535
376.1 K, Crystal	0.03277
377.86 K, Metastable liquid	0.05245
378.06 K, Crystal	0.0385
379.83 K, Metastable liquid	0.06035
380.03 K, Crystal	0.04532
381.81 K, Metastable liquid	0.06885
382.13 K, Crystal	0.05475
383.79 K, Metastable liquid	0.07865
383.96 K, Crystal	0.06316
385.75 K, Metastable liquid	0.08925
385.9 K, Crystal	0.07525
387.75 K, Metastable liquid	0.1024
387.9 K, Crystal	0.08917
389.74 K, Metastable liquid	0.1162
389.85 K, Crystal	0.1058
391.73 K, Metastable liquid	0.131
391.83 K, Crystal	0.1242
393.68 K, Metastable liquid	0.1478
395.67 K, Metastable liquid	0.1684
397.62 K, Liquid	0.1915
399.72 K, Liquid	0.2191
401.54 K, Liquid	0.2426
403.63 K, Liquid	0.2731
405.59 K, Liquid	0.3119
407.46 K, Liquid	0.3461
409.54 K, Liquid	0.3932
411.5 K, Liquid	0.4342
413.47 K, Liquid	0.4825
415.43 K, Liquid	0.5451
417.4 K, Liquid	0.6031
419.39 K, Liquid	0.6721
421.33 K, Liquid	0.7506
423.31 K, Liquid	0.8416

Conditions	Normal melting temperature [°C]
[2], Crystal	121.48
